What is called IC50 is the concentration that inhibits the measured activity by half. A low value points to greater potency.

Here are results for 6 compounds from patent US9918985B2, “Compounds and their use as BACE inhibitors” (ASTRAZENECA AB, priority 2010, dated 2018).

human β-Secretase (soluble part, sBACE-Fc), sequence (P56817 22-460): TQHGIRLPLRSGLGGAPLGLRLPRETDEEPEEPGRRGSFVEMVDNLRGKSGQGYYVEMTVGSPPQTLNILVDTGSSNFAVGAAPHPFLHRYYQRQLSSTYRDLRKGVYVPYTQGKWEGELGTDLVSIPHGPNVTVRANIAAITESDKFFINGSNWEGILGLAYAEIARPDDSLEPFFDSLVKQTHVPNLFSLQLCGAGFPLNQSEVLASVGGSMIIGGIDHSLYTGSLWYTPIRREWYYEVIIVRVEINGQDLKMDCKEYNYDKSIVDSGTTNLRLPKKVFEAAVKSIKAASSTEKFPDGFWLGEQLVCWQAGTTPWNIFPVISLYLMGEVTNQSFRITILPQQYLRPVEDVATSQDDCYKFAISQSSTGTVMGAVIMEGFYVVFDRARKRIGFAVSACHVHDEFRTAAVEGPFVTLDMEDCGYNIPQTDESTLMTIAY

The subject of the first experiment is sAPPβ release in SH-SY5Y cells. Briefly: sAPPβ release assay. The class given is cell-based. As to conditions: 17 h incubation. The method, then: Thaw cells and seed at a conc. of around 10000 cells/well in DMEM/F-12 with Glutamax, 10% FCS and 1% non-essential amino acids to a 384-well tissue culture treated plate, 100 μL cell susp/well. […] The cell medium was removed, followed by addition of 30 μL compound diluted in DMEM/F-12 with Glutamax, 10% FCS, 1% non-essential amino acids and 1% PeSt to a final conc. of 1% DMSO. The compounds were incubated with the cells for 17 h (overnight) at 37° C., 5% CO2. Meso Scale Discovery (MSD) plates were used for the detection of sAPPIβ release. MSD sAPPIβ plates were blocked in 1% BSA in Tris wash buffer (40 μL/well) for 1 h on shake at r.t. and washed 1 time in Tris wash buffer (40 μL/well). 20 μL of medium was transferred to the pre-blocked and washed MSD sAPPIβ microplates, and the cell plates were further used in an ATP assay to measure cytotoxicity. The MSD plates were incubated with shaking at r.t. for 2 h and the media discarded. 10 μL detection antibody was added (1 nM) per well followed by incubation with shaking at r.t. for 2 h and then discarded. 40 μL Read Buffer was added per well and the plates were read in a SECTOR Imager.
Take `CCC1=NC2(N=C1N)c1cc(-c3cncc(Cl)c3)ccc1C[C@]21CC[C@@H](OC)CC1` (single isomer, unassigned; isomer 1) [Example 66 Isomer 1, (1r,4r)-6′-(5-chloropyridin-3-yl)-5″-ethyl-4-methoxy-3′H-dispiro[cyclohexane-1,2′-indene-1′,2″-imidazol]-4″-amine]: the 50% inhibitory concentration (IC50) came out at 1.6 nM.
As to `CC#Cc1cncc(-c2ccc3c(c2)C2(N=C(N)C(CC)=N2)[C@]2(CC[C@H](OC)CC2)C3)c1` (single isomer, unassigned; isomer 1) [Example 68 Isomer 1, (1r,4r)-5″-ethyl-4-methoxy-6′-[5-(prop-1-yn-1-yl)pyridin-3-yl]-3′H-dispiro[cyclohexane-1,2′-indene-1′,2″-imidazol]-4″-amine], the IC50 was determined as 0.38 nM.
Turning to `CCC1=NC2(N=C1N)c1cc(-c3cccc(C#N)c3)ccc1C[C@]21CC[C@@H](OC)CC1` (single isomer, unassigned; isomer 1) [Example 71 Isomer 1, 3-[(1r,4r)-4″-amino-5″-ethyl-4-methoxy-3′H-dispiro-[cyclohexane-1,2′-indene-1′,2″-imidazol]-6′-yl]benzonitrile], the concentration for half-maximal inhibition (IC50) was 5.2 nM.
The same measure, in the same setting: the result for `CCC1=NC2(N=C1N)c1cc(-c3cccc(C#N)c3)ccc1C[C@]21CC[C@@H](OC)CC1` (single isomer, unassigned; isomer 2) [Example 71 Isomer 2, 3-[(1r,4r)-4″-amino-5″-ethyl-4-methoxy-3′H-dispiro-[cyclohexane-1,2′-indene-1′,2″-imidazol]-6′-yl]benzonitrile] reads 763 nM.

The next experiment addresses human β-Secretase (soluble part, sBACE-Fc) (Homo sapiens (Human), UniProt P56817). Briefly: TR-FRET assay. The class given is biochemical. As to conditions: standard TR-FRET assay, 15 minutes reaction at r.t. The method, then: The β-secretase enzyme used in the TR-FRET is prepared as follows:
The cDNA for the soluble part of the human β-Secretase (AA 1-AA 460) was cloned using the ASP2-Fc10-1-IRES-GFP-neoK mammalian expression vector. The gene was fused to the Fc domain of IgG1 (affinity tag) and stably cloned into HEK 293 cells.
The robotic systems Biomek FX and Velocity 11 were used for all liquid handling and the enzyme and substrate solutions were kept on ice until they were placed in the robotic system. Enzyme (9 μl) was added to the plate then 1 μl of compound in dimethylsulphoxide was added, mixed and pre-incubated for 10 minutes. Substrate (10 μl) was then added, mixed and the reaction proceeded for 15 minutes at r.t. The reaction was stopped with the addition of Stop solution (7 μl, NaAcetate, pH 9). […] The dimethylsulphoxide control, instead of test compound, defined the 100% activity level and 0% activity was defined by wells lacking enzyme (replaced with reaction buffer).
For `CO[C@H]1CC[C@]2(CC1)Cc1ccc(-c3ccc(F)cc3F)cc1[C@@]21N=C(C)C(N)=N1` [Example 103, (1r,1′R,4R)-6′-(2,4-Difluorophenyl)-4-methoxy-5″-methyl-3′H-dispiro[cyclohexane-1,2′-indene-1′,2″-imidazol]-4″-amine], it took 34 nM to reach half-maximal inhibition (IC50). That is a double-digit nanomolar value.
With `CCO[C@H]1CC[C@]2(CC1)Cc1ccc(Br)cc1C21N=C(C)C(N)=N1` (stereo partly drawn) [Example 130, (1r,4r)-6′-Bromo-4-ethoxy-5″-methyl-3′H-dispiro[cyclohexane-1,2′-indene-1′,2″-imidazol]-4″-amine], the 50% inhibitory concentration (IC50) stood at 842 nM.
